According to patent publication US6410733B1, “Amidine inhibitors of serine proteases” (Genentech, Inc., priority 2000, dated 2002):

Target: human Factor Xa (Homo sapiens, UniProt P00742)
Assay: Factor Xa assay
Type: biochemical
Parameters: This complex converts factor X to Xa; purchased Hematologic Technologies
Conditions: 3.3 nM Xa, S-2222 0.5 mM; read-out: binding affinity to serine proteases: Xa (constant of inhibition Ki)
Procedure: These procedures are used to determine the constant of inhibition (Ki) for a sample compound of the invention.
Coagulation Factor: human Factor Xa, Thrombin, or Plasma Kallikrein (Hematologic Technologies) Dilute to 0.45 μg/mL (9.8 nM) in assay buffer.
Substrate: S-2222, S2366 or S2302—(See below—Chromogenix Inc,) Reconstitute at 5 mM in H2O. Dilute to 1.5 mM in assay buffer prior to use.
Samples: Dilute samples to 3% DMSO in assay buffer.
1. Add 50 μL sample to each well.
2. Add 50 μL appropriately diluted coagulation factor to each well.
3. Incubate for 5 minutes at room temperature with gentle agitation.
4. Add 50 μL appropriately diluted substrate to each well.
5. Agitate plate for 20-25 sec.
6. Monitor absorbance at 405 nm every 10 sec for a total of 5 minutes at room temperature.
7. Calculate Vmax over 10 points.

Sequence of human Factor Xa (P00742 235-488 limits assumed): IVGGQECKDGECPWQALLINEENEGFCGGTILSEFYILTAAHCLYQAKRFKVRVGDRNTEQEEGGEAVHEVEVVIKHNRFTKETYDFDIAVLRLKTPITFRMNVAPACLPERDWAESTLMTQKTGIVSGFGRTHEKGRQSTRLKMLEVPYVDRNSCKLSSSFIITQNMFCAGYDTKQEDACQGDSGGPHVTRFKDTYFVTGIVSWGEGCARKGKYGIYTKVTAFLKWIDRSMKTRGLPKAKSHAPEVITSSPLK
Sequence of human Factor Xa (P00742 41-179 limits assumed): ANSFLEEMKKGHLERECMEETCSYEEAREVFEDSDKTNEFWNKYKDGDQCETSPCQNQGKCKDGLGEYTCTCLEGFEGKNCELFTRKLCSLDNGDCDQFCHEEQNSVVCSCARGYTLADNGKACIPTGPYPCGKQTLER

Ki: 114 µM
SMILES: C[C@@H](NC(=O)[C@@H]1C[C@@H](Oc2cccc(C(=N)N)c2)CN1)c1ccccc1 [compound 26]
